US10034939B2, “Synergistic combination of immunologic inhibitors for the treatment of cancer” (The University of Chicago, priority 2012, dated 2018)
Where two headings read alike, the source gives them in different places.

Key:
[1] = target: Human indoleamine 2,3-dioxygenasae (IDO) (Homo sapiens (Human), UniProt P14902); test: Human indoleamine 2,3-dioxygenasae (IDO) enzyme assay; format: biochemical
Excerpt: Human indoleamine 2,3-dioxygenasae (IDO) enzyme assay: Human indoleamine 2,3-dioxygenasae (IDO) with an N-terminal His tag was expressed in E. coli and purified to homogeneity. IDO catalyzes the oxidative cleavage of the pyrrole ring of the indole nucleus of tryptophan to yield N′-formylkynurenine.
IC50 data are from the IDO enzyme assay described above.

[2] = system: CD3^+ cells in the peripheral blood; test: Depletion of circulating T cells by FTY720 in tumor-bearing mice; format: in vivo; conditions: 25 μg FTY-720 oral gavage on day 4, relative to vehicle-treated mice
Protocol: Prior to the initiation of the therapy regimens (2.5 h pre-treatment), fingolimod (FTY-720, Enzo Life Sciences) was given to mice to inhibit lymphocyte migration out of lymphoid organs. FTY-720 stock solution (10 mg/ml in DMSO) was diluted to a 125 μg/ml concentration in PBS directly before administration. Mice received a dose of 25 μg FTY-720 or PBS containing DMSO as control via oral gavage. Therapy was initiated the same day (2.5 h delayed) and mice were analyzed on day 7 to perform the ex vivo functional assay as described above.
To determine whether the presence of CD8^+ T cells showing high levels of IL-2 production and proliferation within the tumor microenvironment following effective immunotherapy doublets was a result of new T cell migration into the tumor site or reactivation of T cells already present, FTY720 treatment was utilized to block the sphingosine 1-phosphate receptor-1 and thereby prohibit T cells from exiting lymphoid organs. Previous studies have shown that the effect can be detected as soon as 2 h after initial administration and is stable for up to 4 days. FTY720 was administered or control vehicle to tumor-bearing mice on day 4, 2.5 h prior to the initiation of immunotherapies. […] Overall, a 90% reduction in circulating CD3^+ T cells in FTY720-treated mice was detected (FIG. 13A). […]

[3] = system: CD3^+ cells in the peripheral blood; conditions: previous studies; cited from earlier work
B16-SIY cells = test: Tumor growth inhibition (TGI), unaffected fraction synergy analysis of combination therapies; format: in vivo, mice
Protocol: Treatment was initiated on day 4 post tumor inoculation with the following regimens for each drug. αCTLA-4 antibody (clone UC10-4F10-11, Bio-X-Cell) was given i.p. on day 4, 7 and 10 at a dose of 100 μg/mouse. αPD-L1 antibody (clone 10F.9G2, Bio-X-Cell) was given i.p. (100 μg/mouse) every other day starting on day 4 ending on day 16 post tumor inoculation. IDOi (INCB23843, Incyte Corporation) was dissolved in 0.5% methylcellulose and administered at 300 mg/kg po QD on a 5 days on/2 days off schedule starting on day 4. In the case of functional experiments with an earlier endpoint, treatment regimens were carried out as described until the day of T cell analysis. A comparison between IDOi and IDOc (INCB24360, Incyte Corporation) was perfomed according to the treatment regime described above. Tumor outgrowth was followed starting day 7 onwards and is depicted in combination with anti-CTLA4 (FIG. 18A) or anti-PD-L1 (FIG. 18B). N=5 mice per group, and a two-way Anova test was used to determine significance between the groups.
Treatment was administered in the same fashion as described for FIG. 9, with the exception that IDOi (INCB23843) was replaced by IDOc (INCB24360) in the indicated groups. […] Synergy analysis was performed with day 15 data and with day 23 data. Actual tumor growth inhibition (TGI) is the experimental TGI seen in this experiment for the combinations, and predicted TGI is the TGI that would have been expected for a purely additive combination effect from the performance of the individual agents in this experiment. Actual TGIs higher than predicted TGIs reflect better than additive (synergistic) data.

Sequence of Human indoleamine 2,3-dioxygenasae (IDO) (P14902 whole entry): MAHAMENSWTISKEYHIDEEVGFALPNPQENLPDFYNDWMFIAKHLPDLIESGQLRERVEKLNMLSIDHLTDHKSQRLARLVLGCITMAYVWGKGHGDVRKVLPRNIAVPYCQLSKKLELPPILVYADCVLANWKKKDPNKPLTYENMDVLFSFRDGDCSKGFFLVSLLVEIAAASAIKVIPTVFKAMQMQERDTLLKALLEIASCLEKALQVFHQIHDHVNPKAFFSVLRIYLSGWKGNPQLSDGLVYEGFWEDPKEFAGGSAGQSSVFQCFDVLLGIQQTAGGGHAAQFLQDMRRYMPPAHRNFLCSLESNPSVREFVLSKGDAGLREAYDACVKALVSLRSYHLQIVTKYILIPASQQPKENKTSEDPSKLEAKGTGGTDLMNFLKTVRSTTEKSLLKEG

| Compound | IC50 ([1]; read-out: IDO IC50) [nM] | further results |
| --- | --- | --- |
| NS(=O)(=O)NCCCNc1nonc1C(=NO)Nc1ccc(F)c(Br)c1 [Example 3, 4-({3-[(Aminosulfonyl)amino]propyl}amino)-N-(3-bromo-4-fluorophenyl)-N′-hydroxy-1,2,5-oxadiazole-3-carboximidamide] | < 100 | – |
| CS(=O)(=O)NCCCNc1nonc1C(=NO)Nc1ccc(F)c(Br)c1 [Example 4, N-(3-Bromo-4-fluorophenyl)-N′-hydroxy-4-({3-[(methylsulfonyl)amino]propyl}amino)-1,2,5-oxadiazole-3-carboximidamide] | < 100 | – |
| NS(=O)(=O)NCCNc1nonc1C(=NO)Nc1ccc(F)c(Cl)c1 [Example 5, 4-({2-[(Aminosulfonyl)amino]ethyl}amino)-N-(3-chloro-4-fluorophenyl)-N′-hydroxy-1,2,5-oxadiazole-3-carboximidamide] | < 200 | – |
| CS(=O)(=O)NCCNc1nonc1C(=NO)Nc1ccc(F)c(Cl)c1 [Example 6, N-(3-Chloro-4-fluorophenyl)-N′-hydroxy-4-({2-[(methylsulfonyl)amino]ethyl}amino)-1,2,5-oxadiazole-3-carboximidamide] | < 200 | – |
| NS(=O)(=O)NCCCNc1nonc1C(=NO)Nc1ccc(F)c(Cl)c1 [Example 7, 4-({3-[(Aminosulfonyl)amino]propyl}amino)-N-(3-chloro-4-fluorophenyl)-N′-hydroxy-1,2,5-oxadiazole-3-carboximidamide] | < 200 | – |
| CS(=O)(=O)NCCCNc1nonc1C(=NO)Nc1ccc(F)c(Cl)c1 [Example 8, N-(3-Chloro-4-fluorophenyl)-N′-hydroxy-4-({3-[(methylsulfonyl)amino]propyl}amino)-1,2,5-oxadiazole-3-carboximidamide] | < 200 | – |
| NS(=O)(=O)NCCNc1nonc1C(=NO)Nc1ccc(F)c(C(F)(F)F)c1 [Example 9, 4-({2-[(Aminosulfonyl)amino]ethyl}amino)-N-[4-fluoro-3-(trifluoromethyl)phenyl]-N′-hydroxy-1,2,5-oxadiazole-3-carboximidamide] | < 100 | – |
| CS(=O)(=O)NCCNc1nonc1C(=NO)Nc1ccc(F)c(C(F)(F)F)c1 [Example 10, N-[4-Fluoro-3-(trifluoromethyl)phenyl]-N′-hydroxy-4-({2-[(methylsulfonyl)amino]ethyl}amino)-1,2,5-oxadiazole-3-carboximidamide] | < 100 | – |
| NS(=O)(=O)NCCCNc1nonc1C(=NO)Nc1ccc(F)c(C(F)(F)F)c1 [Example 11, 4-({3-[(Aminosulfonyl)amino]propyl}amino)-N-[4-fluoro-3-(trifluoromethyl)phenyl]-N′-hydroxy-1,2,5-oxadiazole-3-carboximidamide] | < 100 | – |
| CS(=O)(=O)NCCCNc1nonc1C(=NO)Nc1ccc(F)c(C(F)(F)F)c1 [Example 12, N-[4-Fluoro-3-(trifluoromethyl)phenyl]-N′-hydroxy-4-({3-[(methylsulfonyl)amino]propyl}amino)-1,2,5-oxadiazole-3-carboximidamide] | < 100 | – |
| NS(=O)(=O)NCCNc1nonc1C(=NO)Nc1cccc(C(F)(F)F)c1 [Example 13, 4-({2-[(Aminosulfonyl)amino]ethyl}amino)-N′-hydroxy-N-[3-(trifluoromethyl)phenyl]-1,2,5-oxadiazole-3-carboximidamide] | < 500 | – |
| CS(=O)(=O)NCCNc1nonc1C(=NO)Nc1cccc(C(F)(F)F)c1 [Example 14, N′-Hydroxy-4-({2-[(methylsulfonyl)amino]ethyl}amino)-N-[3-(trifluoromethyl)phenyl]-1,2,5-oxadiazole-3-carboximidamide] | < 200 | – |
| NS(=O)(=O)NCCCNc1nonc1C(=NO)Nc1cccc(C(F)(F)F)c1 [Example 15, 4-({3-[(Aminosulfonyl)amino]propyl}amino)-N′-hydroxy-N-[3-(trifluoromethyl)phenyl]-1,2,5-oxadiazole-3-carboximidamide] | < 200 | – |
| CS(=O)(=O)NCCCNc1nonc1C(=NO)Nc1cccc(C(F)(F)F)c1 [Example 16, N′-Hydroxy-4-({3-[(methylsulfonyl)amino]propyl}amino)-N-[3-(trifluoromethyl)phenyl]-1,2,5-oxadiazole-3-carboximidamide] | < 200 | – |
| Cc1cc(NC(=NO)c2nonc2NCCNS(C)(=O)=O)ccc1F [Example 17, N-(4-Fluoro-3-methylphenyl)-N′-hydroxy-4-({2-[(methylsulfonyl)amino]ethyl}amino)-1,2,5-oxadiazole-3-carboximidamide] | < 500 | – |
| N#Cc1cc(NC(=NO)c2nonc2NCCNS(N)(=O)=O)ccc1F [Example 18, 4-({2-[(Aminosulfonyl)amino]ethyl}amino)-N-(3-cyano-4-fluorophenyl)-N′-hydroxy-1,2,5-oxadiazole-3-carboximidamide] | < 750 | – |
| CS(=O)(=O)NCCNc1nonc1C(=NO)Nc1ccc(F)c(C#N)c1 [Example 19, N-(3-Cyano-4-fluorophenyl)-N′-hydroxy-4-({2-[(methylsulfonyl)amino]ethyl}amino)-1,2,5-oxadiazole-3-carboximidamide] | < 500 | – |
| NS(=O)(=O)NCCNc1nonc1C(=NO)NCc1cc(Br)co1 [Example 20, 4-({2-[(Aminosulfonyl)amino]ethyl}amino)-N-[(4-bromo-2-furyl)methyl]-N′-hydroxy-1,2,5-oxadiazole-3-carboximidamide] | < 500 | – |
| NS(=O)(=O)NCCNc1nonc1C(=NO)NCc1cc(Cl)co1 [Example 21, 4-({2-[(Aminosulfonyl)amino]ethyl}amino)-N-[(4-chloro-2-furyl)methyl]-N′-hydroxy-1,2,5-oxadiazole-3-carboximidamide] | < 750 | – |
| CN(CCNc1nonc1/C(=N/O)Nc1ccc(F)c(Cl)c1)S(N)(=O)=O [Example 24, 4-(2-[(Aminosulfonyl)(methyl)amino]ethylamino)-N-(3-chloro-4-fluorophenyl)-N′-hydroxy-1,2,5-oxadiazole-3-carboximidamide] | < 200 | IC50 ([1]; average of five lots, read-out: IC50): 132 nM |
| CCCCCCCCc1ccc(CCC(N)(CO)CO)cc1 [FTY720, fingolimod] | – | reduction in circulating CD3^+ T cells [2]: 90%; time after initial administration at which the effect can be detected [3]: 2 h; time for which the effect is stable [3]: up to 4 days |
| NS(=O)(=O)NCCNc1nonc1/C(=N/O)Nc1ccc(F)c(Br)c1 [IDOc] | – | Actual TGI (B16-SIY cells; Day 15 (end of dosing), combination with anti CTLA4): 74%; Actual TGI (B16-SIY cells; Day 15 (end of dosing), combination with antiPDL1): 81%; Predicted TGI (B16-SIY cells; Day 15, combination with anti CTLA4, expected for a purely additive effect from the individual agents): 66%; Predicted TGI (B16-SIY cells; Day 15, combination with antiPDL1, expected for a purely additive effect): 24%; Actual TGI (B16-SIY cells; Day 23 (last day of vehicles), combination with anti CTLA4): 93%; Actual TGI (B16-SIY cells; Day 23 (last day of vehicles), combination with antiPDL1): 82%; Predicted TGI (B16-SIY cells; Day 23, combination with anti CTLA4, expected for a purely additive effect): 65%; Predicted TGI (B16-SIY cells; Day 23, combination with antiPDL1, expected for a purely additive effect): 35% |
